Results on twelve compounds are retold here after patent publication US6632829B2, “Sulfonamides and derivatives thereof that modulate the activity of endothelin” (Texas Biotechnology Corp., priority 1996, dated 2003).

The target of assay [1] is T1, human ETA receptors (Homo sapiens, UniProt P25101).
T1 construct: endogenous in cells; host or cells: TE 671 cells (ATCC HTB 139), membrane preparation
T1 sequence (P25101 21-427): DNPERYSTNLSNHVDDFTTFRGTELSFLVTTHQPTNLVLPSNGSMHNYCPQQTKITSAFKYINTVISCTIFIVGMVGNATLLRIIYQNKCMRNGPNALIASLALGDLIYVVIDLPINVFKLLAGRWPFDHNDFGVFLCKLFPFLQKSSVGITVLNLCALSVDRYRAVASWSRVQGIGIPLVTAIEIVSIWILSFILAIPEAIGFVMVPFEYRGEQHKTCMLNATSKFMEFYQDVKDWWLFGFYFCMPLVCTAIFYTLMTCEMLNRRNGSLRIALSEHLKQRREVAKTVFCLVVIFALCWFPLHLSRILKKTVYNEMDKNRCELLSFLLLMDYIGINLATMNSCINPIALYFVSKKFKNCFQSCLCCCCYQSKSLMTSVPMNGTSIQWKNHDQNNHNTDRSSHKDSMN
Nature of the assay: Endothelin binding inhibition, Binding Test #1: competition with 125I-ET-1 for ETA receptors on TE 671 cell membranes.

Assay [2] concerns the target T2, human ETB receptor (Homo sapiens, UniProt P24530).
T2 construct: expressed in transfected cells; host or cells: COS7 cells
T2 sequence (P24530 27-442): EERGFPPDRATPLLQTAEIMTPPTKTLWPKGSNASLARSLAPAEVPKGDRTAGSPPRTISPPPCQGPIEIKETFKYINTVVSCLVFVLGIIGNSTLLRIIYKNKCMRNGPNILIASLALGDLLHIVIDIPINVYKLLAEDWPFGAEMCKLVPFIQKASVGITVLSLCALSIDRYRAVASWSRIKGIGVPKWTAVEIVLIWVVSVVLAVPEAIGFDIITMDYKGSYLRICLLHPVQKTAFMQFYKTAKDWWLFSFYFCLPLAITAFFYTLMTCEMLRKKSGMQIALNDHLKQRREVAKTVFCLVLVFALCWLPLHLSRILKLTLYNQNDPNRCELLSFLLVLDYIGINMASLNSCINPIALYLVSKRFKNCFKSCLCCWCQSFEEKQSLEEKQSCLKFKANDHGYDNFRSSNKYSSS
Nature of the assay: Endothelin binding inhibition, Binding Test #2: competition with 125I-ET-1 for ETB receptors on transfected COS7 cell membranes. In outline: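 Membranes from COS7 cells transfected with human ETB receptor, prepared in HEPES pH 7.4 with aprotinin, MnCl2/DNase treatment at 37° C for 30 min. Test compounds compete with 125I-labeled ET-1 for receptor binding; membrane used at 1 μg/50 μL binding buffer.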

Where [3] appears, read: incubation at 24° C. (values marked †).
[4] abbreviates: incubation at 4° C. (values without †).

Several values for one entry are separate records, joined by “and”; a condition that tells them apart may be missing. Identical values can stand only once. Where only a bound is given, the exact number is not on record here.

In the case of `COc1ccc(OC(=O)c2sccc2S(=O)(=O)Nc2onc(C)c2Cl)cc1` [N-(4-chloro-3-methyl-5-isoxazolyl)-2-[(4-methoxyphenoxy)carbonyl]thiophene-3-sulfonamide], the half-inhibitory concentration (IC50) in assay [1] (setting [3]) was found to be 23 nM; in assay [2] (setting [3]), 15000 nM.

Take `Cc1noc(NS(=O)(=O)c2ccsc2C(=O)C(C#N)c2ccc3c(c2)OCO3)c1Cl` (stereo not drawn) [N-(4-chloro-3-methyl-5-isoxazolyl)-2-{1-cyano-1-[(3,4-methylenedioxy)phenyl]acetyl}thiophene-3-sulfonamide]: the results for the IC50 in assay [1] (setting [3]) and in assay [2] (setting [3]) were 2100 nM and 27000 nM, respectively.

As to `Cc1noc(NS(=O)(=O)c2c(Cc3ccc4c(c3)OCO4)sc3ccccc23)c1Cl` [N-(4-chloro-3-methyl-5-isoxazolyl)-2-[(3,4-methylenedioxy)benzyl]benzo[b]thiophene-3-sulfonamide], the IC50 was found to be 11 ± 5 nM in assay [1] (setting [3]) and 936 ± 95 nM in assay [2] (setting [3]).

Regarding `Cc1noc(NS(=O)(=O)c2sccc2C(=O)Nc2ccccc2)c1C` [N-(3,4-dimethyl-5-isoxazolyl))-3-(phenylaminocarbonyl)thiophene-2-sulfonamide], the IC50 in assay [1] (setting [4]) is 163 nM; in assay [2] (setting [4]) it was greater than 100000 nM.

For the compound `CCCc1ccc(-c2ccsc2S(=O)(=O)Nc2onc(C)c2Br)c(C)c1` [N-(4-bromo-3-methyl-5-isoxazolyl)-3-(2-methyl-4-propylphenyl)thiophene-2-sulfonamide], the 50% inhibitory concentration (IC50) is 46.8 nM in assay [1] (setting [3]) and 3630 nM in assay [2] (setting [3]).

For `COC(=O)c1c(C)cc(C)c(NC(=O)c2sccc2S(=O)(=O)Nc2onc(C)c2Cl)c1C` [N-(4-chloro-3-methyl-5-isoxazolyl)-2-(3-methoxycarbonyl-2,4,6-trimethylphenylaminocarbonyl)thiophene-3-sulfonamide], the half-maximal inhibitory concentration (IC50) in assay [1] (setting [3]) was 0.321 nM and 0.92 nM; in assay [2] (setting [3]), 16500 nM.

On to `Cc1ccc(CC(=O)c2sccc2S(=O)(=O)Nc2onc(C)c2Cl)c(C)c1` [N-(4-chloro-3-methyl-5-isoxazolyl)-(2,4-dimethylphenylacetyl)thiophene-3-sulfonamide], for which the results for the half-maximal inhibitory concentration (IC50) in assay [1] (setting [3]) and in assay [2] (setting [3]) were 0.4 nM and 4800 nM, respectively.

For the compound `Cc1noc(NS(=O)(=O)c2c(Cc3ccc4c(c3)OCO4)sc3ccccc23)c1Br` [N-(4-bromo-3-methyl-5-isoxazolyl)-2-[3,4-(methylenedioxy)benzyl]benzo[b]thiophene-3-sulfonamide], the IC50 amounted to 1.5 ± 1.4 nM in assay [1] (setting [4]), 7.4 ± 1.1 nM in assay [1] (setting [3]), 324 ± 780 nM in assay [2] (setting [4]) and 939 ± 262 nM in assay [2] (setting [3]).

With `Cc1noc(NS(=O)(=O)c2ccsc2Cc2ccc3c(c2)OCO3)c1Br` [N-(4-bromo-3-methyl-5-isoxazolyl)-2-[(3,4-methylenedioxy)benzyl]thiophene-3-sulfonamide], the IC50 in assay [1] (setting [3]) came out at 270 nM; in assay [2] (setting [3]) it was 7700 nM.

`Cc1noc(NS(=O)(=O)c2ccsc2CO)c1Br` [N-(4-bromo-3-methyl-5-isoxazolyl)-2-(hydroxymethyl)thiophene-3-sulfonamide]: the 50% inhibitory concentration (IC50) in assay [1] (setting [4]) was 160 nM; in assay [1] (setting [3]), 1550 nM; in assay [2] (setting [4]), 44100 nM.

Turning to `Cc1noc(NS(=O)(=O)c2ccsc2C(=O)Oc2cccc(N(C)C)c2)c1Cl` [N-(4-chloro-3-methyl-5-isoxazolyl)-2-[(3-dimethylamino)phenoxycarbonyl]thiophene-3-sulfonamide], the results for the IC50 in assay [1] (setting [3]) and in assay [2] (setting [3]) were 1400 nM and 60000 nM, respectively.

As to `Cc1noc(NS(=O)(=O)c2ccc(C(=O)Nc3ccccc3)s2)c1Cl` [N-(4-chloro-3-methyl-5-isoxazolyl)-5-(phenylaminocarbonyl)thiophene-2-sulfonamide], the concentration for half-maximal inhibition (IC50) is 28100 nM in assay [1] (setting [3]) and 60600 nM in assay [2] (setting [3]).
